# Results taken from patent US20190119284A1, “ErbB Inhibitors and Uses Thereof” (The Regents of the University of California, priority 2016, published 2019).
# Legend:
# JAK3 = JAK3 (Homo sapiens, UniProt P52333); assay: Nanosyn in vitro kinase profiling: JAK3; format: biochemical
# Description: (§1) This was confirmed by in vitro profiling against a panel of kinases, with compound 2 only showing potent inhibition of EGFR and Ab1 (Table 2).
# (§2) In vitro Kinome Screen. In vitro profiling of compound 2 at 100 nM was conducted by Nanosyn.
# TIE2 = TIE2 (Homo sapiens, UniProt Q02763); assay: Nanosyn in vitro kinase profiling: TIE2; format: biochemical
# TIE2, sequence (Q02763 23-1124, species assumed): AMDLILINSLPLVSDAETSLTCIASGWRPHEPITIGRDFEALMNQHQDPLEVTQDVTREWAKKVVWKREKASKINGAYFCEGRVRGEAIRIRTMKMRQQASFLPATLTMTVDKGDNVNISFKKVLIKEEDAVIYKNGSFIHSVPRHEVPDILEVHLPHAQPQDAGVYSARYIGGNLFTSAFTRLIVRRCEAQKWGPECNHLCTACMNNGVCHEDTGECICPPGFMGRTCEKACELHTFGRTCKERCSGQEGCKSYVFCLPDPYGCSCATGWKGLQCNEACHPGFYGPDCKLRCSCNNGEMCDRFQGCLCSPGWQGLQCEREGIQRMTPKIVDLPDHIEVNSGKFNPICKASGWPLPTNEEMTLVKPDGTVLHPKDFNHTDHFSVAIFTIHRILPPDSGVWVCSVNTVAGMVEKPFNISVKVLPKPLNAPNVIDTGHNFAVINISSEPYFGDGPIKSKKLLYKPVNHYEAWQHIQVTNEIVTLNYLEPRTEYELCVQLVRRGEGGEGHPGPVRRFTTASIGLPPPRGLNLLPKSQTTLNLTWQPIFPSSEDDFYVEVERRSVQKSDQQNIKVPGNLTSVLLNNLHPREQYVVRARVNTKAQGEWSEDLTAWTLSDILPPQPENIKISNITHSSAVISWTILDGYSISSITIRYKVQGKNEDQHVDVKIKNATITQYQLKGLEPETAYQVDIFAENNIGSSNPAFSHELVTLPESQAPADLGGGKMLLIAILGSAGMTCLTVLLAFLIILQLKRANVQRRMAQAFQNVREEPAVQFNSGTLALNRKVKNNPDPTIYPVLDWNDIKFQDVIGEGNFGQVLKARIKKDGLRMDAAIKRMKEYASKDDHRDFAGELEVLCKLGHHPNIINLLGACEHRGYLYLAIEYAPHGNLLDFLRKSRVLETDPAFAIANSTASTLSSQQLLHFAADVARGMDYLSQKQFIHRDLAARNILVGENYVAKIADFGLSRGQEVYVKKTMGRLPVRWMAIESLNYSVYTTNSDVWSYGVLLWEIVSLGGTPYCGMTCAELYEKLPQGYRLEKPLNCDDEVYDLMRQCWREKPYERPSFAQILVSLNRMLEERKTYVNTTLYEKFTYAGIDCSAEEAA
# Description: as §1, §2
# HER3 kinase domain = target: T1, HER3 kinase domain (Homo sapiens, UniProt P21860); assay: HER3 Thermofluor Assay; format: binding; conditions: 20 μM inhibitor
# T1 construct: added to 19 μL of the HER3 kinase domain in reaction buffer; made in house; host or cells: baculovirus/insect cells (inferred from the pFastBac plasmid)
# Description: HER3 Thermofluor Assay. The HER3 gatekeeper mutation (T787M) was introduced into the HER3 tyrosine kinase domain in the pFastBac plasmid using standard protocols. Both wt and T787M HER3 were purified according to the previously published protocols. Thermofluor reactions were performed in duplicate and set up as follows. 1 μL of an inhibitor or DMSO dilution in 40% DMSO:water was added to 19 μL of the HER3 kinase domain in reaction buffer. The final reaction solution contained 100 mM MOPS, 200 mM NaCl, 5% glycerol, 5 mM MgCl2, 0.1 mM DTT, 5× SYPRO orange, 2 μM kinase, 2% DMSO and 20 μM inhibitor in the wells of a 96-well, low profile, white, PCR plate (USA scientific). The solution was pipetted up and down to mix, sealed with TempAssure clear PCR flat caps (USA Scientific), centrifuged at 500×g for 30 s, and heated in a Stratagene Mx3005P RT-PCR machine from 25° C. to 95° C. in 0.5° C. increments every 30 s after an initial incubation at 25° C. for 10 min. Fluorescence was measured at the end of each 30 s period with an excitation wavelength of 492 nm and an emission wavelength of 610 nm. […] Values after the well had reached a maximum signal were discarded and the signals were fit to the Boltzmann equation in Graphpad Prism 6. ΔTm was calculated as the difference in melting temperature between the compound treated kinase compared to the DMSO control.
# TSSK1 = TSSK1 (Homo sapiens, UniProt Q9BXA7); assay: Nanosyn in vitro kinase profiling: TSSK1; format: biochemical
# Description: as §1, §2
# ALK = ALK (Homo sapiens, UniProt Q9UM73); assay: Nanosyn in vitro kinase profiling: ALK; format: biochemical
# ALK, sequence (Q9UM73 19-1620, species assumed): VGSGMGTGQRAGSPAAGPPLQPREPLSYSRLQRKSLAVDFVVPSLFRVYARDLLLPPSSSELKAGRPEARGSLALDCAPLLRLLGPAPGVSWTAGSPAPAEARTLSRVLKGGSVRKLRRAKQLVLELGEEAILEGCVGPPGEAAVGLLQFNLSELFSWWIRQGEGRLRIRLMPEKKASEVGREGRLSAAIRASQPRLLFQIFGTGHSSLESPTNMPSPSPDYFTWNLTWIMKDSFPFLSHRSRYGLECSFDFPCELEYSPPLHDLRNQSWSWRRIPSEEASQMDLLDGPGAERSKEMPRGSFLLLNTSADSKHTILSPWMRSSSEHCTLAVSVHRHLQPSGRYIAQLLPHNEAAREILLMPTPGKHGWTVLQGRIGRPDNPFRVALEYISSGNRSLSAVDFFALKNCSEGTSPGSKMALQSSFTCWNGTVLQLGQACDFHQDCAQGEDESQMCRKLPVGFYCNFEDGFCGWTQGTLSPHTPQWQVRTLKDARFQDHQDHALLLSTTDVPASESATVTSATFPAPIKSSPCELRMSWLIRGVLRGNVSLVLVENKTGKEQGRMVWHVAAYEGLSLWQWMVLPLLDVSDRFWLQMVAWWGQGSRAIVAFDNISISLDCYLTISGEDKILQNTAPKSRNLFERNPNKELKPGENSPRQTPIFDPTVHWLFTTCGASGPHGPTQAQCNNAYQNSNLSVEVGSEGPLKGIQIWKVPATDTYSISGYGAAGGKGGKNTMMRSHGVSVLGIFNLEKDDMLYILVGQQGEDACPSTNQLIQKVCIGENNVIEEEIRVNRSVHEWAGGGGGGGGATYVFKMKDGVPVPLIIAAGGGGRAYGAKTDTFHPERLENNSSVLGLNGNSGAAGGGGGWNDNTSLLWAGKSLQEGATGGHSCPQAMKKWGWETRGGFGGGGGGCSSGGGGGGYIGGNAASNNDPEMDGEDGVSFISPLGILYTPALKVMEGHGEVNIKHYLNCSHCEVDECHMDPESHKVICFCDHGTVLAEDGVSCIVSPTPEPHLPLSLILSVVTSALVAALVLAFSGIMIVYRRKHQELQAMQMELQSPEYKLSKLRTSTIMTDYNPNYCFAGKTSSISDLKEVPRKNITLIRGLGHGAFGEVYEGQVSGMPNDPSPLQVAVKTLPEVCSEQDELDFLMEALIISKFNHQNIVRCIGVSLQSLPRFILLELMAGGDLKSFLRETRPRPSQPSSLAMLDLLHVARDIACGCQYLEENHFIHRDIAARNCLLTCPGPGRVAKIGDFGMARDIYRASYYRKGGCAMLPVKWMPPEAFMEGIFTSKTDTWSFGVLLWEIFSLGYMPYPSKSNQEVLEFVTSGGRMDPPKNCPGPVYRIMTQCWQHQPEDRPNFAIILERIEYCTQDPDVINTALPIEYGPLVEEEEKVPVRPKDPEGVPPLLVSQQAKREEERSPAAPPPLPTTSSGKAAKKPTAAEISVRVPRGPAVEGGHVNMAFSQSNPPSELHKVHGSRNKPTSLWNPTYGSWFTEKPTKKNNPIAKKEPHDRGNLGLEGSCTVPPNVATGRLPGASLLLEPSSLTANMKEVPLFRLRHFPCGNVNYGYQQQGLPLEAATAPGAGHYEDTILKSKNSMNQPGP
# Description: as §1, §2
# [1] = target: T2, EGFR gatekeeper to methionine mutant in NCI-H1975 cells (Homo sapiens, UniProt P00533, L858R/T790M); assay: EGFR signaling and proliferation in NCI-H1975 cells; format: cell-based
# T2 construct: mutation of the EGFR gatekeeper to methionine in NCI-H1975 cells; endogenous in cells; host or cells: NCI-H1975
# T2 sequence (P00533 25-1210 T790M/L858R): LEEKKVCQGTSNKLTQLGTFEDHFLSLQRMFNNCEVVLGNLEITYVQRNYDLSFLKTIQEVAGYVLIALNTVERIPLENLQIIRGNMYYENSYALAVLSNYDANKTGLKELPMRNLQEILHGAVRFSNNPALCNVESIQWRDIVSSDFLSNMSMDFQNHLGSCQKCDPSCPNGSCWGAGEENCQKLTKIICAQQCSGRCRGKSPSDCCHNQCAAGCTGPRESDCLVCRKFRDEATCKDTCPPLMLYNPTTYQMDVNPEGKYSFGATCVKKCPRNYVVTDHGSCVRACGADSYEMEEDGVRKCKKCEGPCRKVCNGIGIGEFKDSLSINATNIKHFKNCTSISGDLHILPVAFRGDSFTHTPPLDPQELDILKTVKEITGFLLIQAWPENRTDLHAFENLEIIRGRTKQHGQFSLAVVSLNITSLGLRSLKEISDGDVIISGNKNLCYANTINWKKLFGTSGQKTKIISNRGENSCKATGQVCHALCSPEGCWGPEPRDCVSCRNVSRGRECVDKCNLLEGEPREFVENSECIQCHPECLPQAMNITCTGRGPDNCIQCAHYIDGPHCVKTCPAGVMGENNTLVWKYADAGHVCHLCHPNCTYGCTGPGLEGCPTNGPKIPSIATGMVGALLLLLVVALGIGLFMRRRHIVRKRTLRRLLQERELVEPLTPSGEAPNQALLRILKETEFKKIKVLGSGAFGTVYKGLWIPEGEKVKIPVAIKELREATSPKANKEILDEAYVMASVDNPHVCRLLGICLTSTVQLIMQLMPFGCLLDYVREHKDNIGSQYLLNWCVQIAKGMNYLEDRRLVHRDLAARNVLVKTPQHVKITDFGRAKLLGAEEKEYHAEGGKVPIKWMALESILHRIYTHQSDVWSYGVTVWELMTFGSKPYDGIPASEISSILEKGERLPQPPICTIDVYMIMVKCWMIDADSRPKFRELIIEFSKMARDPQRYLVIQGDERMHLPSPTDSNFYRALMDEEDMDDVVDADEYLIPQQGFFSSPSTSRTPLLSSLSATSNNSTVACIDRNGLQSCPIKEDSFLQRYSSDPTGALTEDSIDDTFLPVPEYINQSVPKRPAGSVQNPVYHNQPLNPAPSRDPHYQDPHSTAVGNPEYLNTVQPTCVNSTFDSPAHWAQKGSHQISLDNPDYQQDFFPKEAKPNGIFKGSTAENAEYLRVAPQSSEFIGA
# [2] = target: T3, 2YF-VC/3wt + NRG Ba/F3 cells (Homo sapiens, UniProt P04626, DELINS776-776VC/Y1005F/Y1023F/Y1112F/Y1127F/Y1139F/Y1196F/Y1221F/Y1222F/Y1248F, cells depend on it); assay: Ba/F3 proliferation assay, 2YF-VC/3wt + NRG; format: cell-based; conditions: Table 4; ± S.D., n = 2; read-out: IC50, 2YF-VC/3wt + NRG
# T3 construct: reported HER2 oncogenic mutants in the HER2YF construct
# Description: (§3) For the 2YF/3wt cells, the parental cells were first transduced with HER3 according to the protocol above and were then spun down at 500×g for 5 min and re-suspended in media supplemented with 10 ng/mL IL-3 and 3 μg/mL puromycin (Invitrogen). Cells were maintained in these conditions for seven days, passaging as required. After seven days the cells were spun down, washed with fresh media, and then used for a subsequent round of transduction according to the protocol above with HER2YF virus. […] The cells were maintained in these conditions for seven days, passaging as required. After seven days the cells were spun down, washed with fresh media, and then suspended in media supplemented with 10 ng/mL of NRG. Cells were maintained in these conditions for seven days to select for a NRG dependent population of 2YF/3wt Ba/F3 cells that were then maintained as described above. The same protocol was used for the 2YF-L755S/3wt, 2YF-YVMA/3wt, and 2YF-VC/3wt cell lines using the indicated constructs.
# (§4) Proliferation Assays. […] The following day media was changed to fresh media that contained either DMSO or the indicated concentration of drug plus NRG (50 ng/mL final concentration) as indicated. […] For all normalized assays, proliferation was normalized to the DMSO control condition. […]
# [3] = system: mutationally activated EGFR; assay: proliferation assays of EGFR cell lines (FIG. 7C); format: cell-based; conditions: in contrast to lapatinib
# [4] = target: T4, 2YF-L755S/3wt + NRG Ba/F3 cells (Homo sapiens, UniProt P04626, L755S/Y1005F/Y1023F/Y1112F/Y1127F/Y1139F/Y1196F/Y1221F/Y1222F/Y1248F, cells depend on it); assay: Ba/F3 proliferation assay, 2YF-L755S/3wt + NRG; format: cell-based; conditions: Table 4; ± S.D., n = 2; read-out: IC50, 2YF-L755S/3wt + NRG
# T4 construct: reported HER2 oncogenic mutants in the HER2YF construct
# Description: as §3, §4
# FaDu cells = assay: 72 h proliferation of FaDu cells; format: cell-based
# From the text: FIGS. 20A-20B. […] FIG. 20A. […] FIG. 20B.
# [5] = system: HER2/HER3 signaling in SK-BR-3 cells; assay: HER2/HER3 signaling in SK-BR-3 cells (immunoblot); format: cell-based; conditions: serum-starved SK-BR-3 cells; drug added 15 min before NRG
# Description: Immunoblotting. Cells were grown in 6 well plates and treated according to the indicated conditions at which point the media was aspirated, cells were washed with 1 mL of cold PBS, which was then aspirated and the plates were frozen at −80° C. The frozen cells were thawed on the plates in a buffer containing 50 mM Tris pH 7.5, 150 mM NaCl, 1 mM EDTA, and 1% Triton X-100 supplemented with 1× phosphatase (PhoSTOP, Roche) and 1× protease (complete-mini tablets, Roche) inhibitors. Lysates were scraped, transferred to Eppendorf tubes, and cleared by centrifugation at 20,000×g for 20 min at 4° C. The clarified lysates were transferred to chilled, clean tubes, and normalized for protein concentration by Bradford (Bio-Rad). […] Primary antibodies were detected using IRDye secondary antibodies (Li-Cor) according to the manufacturer's recommendations and scanned on an Odyssey imager (Li-Cor).
# JAK3, sequence (P52333 whole entry): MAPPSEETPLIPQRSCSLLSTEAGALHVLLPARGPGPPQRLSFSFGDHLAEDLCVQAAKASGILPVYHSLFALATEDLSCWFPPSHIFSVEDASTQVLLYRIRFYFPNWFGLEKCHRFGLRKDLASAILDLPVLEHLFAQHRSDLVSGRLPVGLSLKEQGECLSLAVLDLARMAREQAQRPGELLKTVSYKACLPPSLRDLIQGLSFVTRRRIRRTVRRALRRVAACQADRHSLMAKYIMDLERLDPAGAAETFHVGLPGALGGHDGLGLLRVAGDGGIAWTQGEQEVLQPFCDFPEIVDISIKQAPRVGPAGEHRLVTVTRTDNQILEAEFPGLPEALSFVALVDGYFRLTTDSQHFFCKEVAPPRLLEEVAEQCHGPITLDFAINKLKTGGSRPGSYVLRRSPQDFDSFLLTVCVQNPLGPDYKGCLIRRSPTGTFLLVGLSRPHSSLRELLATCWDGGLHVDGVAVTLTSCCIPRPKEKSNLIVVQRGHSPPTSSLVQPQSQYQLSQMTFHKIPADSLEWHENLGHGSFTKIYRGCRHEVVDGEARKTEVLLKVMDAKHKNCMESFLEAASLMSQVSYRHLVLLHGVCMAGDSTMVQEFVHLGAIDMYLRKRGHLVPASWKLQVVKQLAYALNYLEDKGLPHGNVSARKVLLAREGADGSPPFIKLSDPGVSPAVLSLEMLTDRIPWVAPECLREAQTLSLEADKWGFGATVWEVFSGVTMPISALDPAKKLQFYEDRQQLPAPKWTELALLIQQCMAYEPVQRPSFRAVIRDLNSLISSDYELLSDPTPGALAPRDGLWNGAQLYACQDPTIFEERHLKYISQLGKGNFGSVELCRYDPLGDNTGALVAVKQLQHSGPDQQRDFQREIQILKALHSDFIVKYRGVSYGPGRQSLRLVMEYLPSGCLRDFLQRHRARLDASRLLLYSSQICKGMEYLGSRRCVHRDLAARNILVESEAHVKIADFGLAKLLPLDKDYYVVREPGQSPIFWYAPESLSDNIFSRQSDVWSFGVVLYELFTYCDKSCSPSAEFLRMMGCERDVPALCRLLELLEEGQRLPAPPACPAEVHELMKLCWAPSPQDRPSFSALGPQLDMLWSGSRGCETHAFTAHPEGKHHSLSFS
structure (smiles),measurement,setting,value
"COc1ccc(-c2ccco2)cc1Nc1ncnc2[nH]nc(-c3ccco3)c12 [compound 2, 3-(furan-2-yl)-N-(5-(furan-2-yl)-2-methoxyphenyl)-1H-pyrazolo[3,4-d]pyrimidin-4-amine]",inhibition at 0.1 µM,JAK3; compound at 100 nM,20.4%
same,inhibition at 1 µM,JAK3; compound at 1 μM,69.4%
same,inhibition at 0.1 µM,TIE2; compound at 100 nM,12.8%
same,inhibition at 1 µM,TIE2; compound at 1 μM,59.7%
same,binding to HER3,HER3 kinase domain,capable of binding to HER3
same,inhibition at 0.1 µM,TSSK1; compound at 100 nM,0.665%
same,inhibition at 1 µM,TSSK1; compound at 1 μM,-3.06%
same,inhibition at 0.1 µM,ALK; compound at 100 nM,6.14%
same,inhibition at 1 µM,ALK; compound at 1 μM,19.8%
"COc1ccc(-c2ccoc2)cc1Nc1ncnc2[nH]cc(-c3cc[nH]n3)c12 [compound 3, N-(5-(furan-3-yl)-2-methoxyphenyl)-5-(1H-pyrazol-3-yl)-7H-pyrrolo[2,3-d]pyrimidin-4-amine]",p-845 site inhibition at concentrations,[1]; EGFR gatekeeper methionine,less than 1 μM
same,effect of EGFR gatekeeper methionine mutation on inhibition,[1]; signaling and proliferation,caused a shift in the ability of compound 3 to inhibit both signaling and proliferation
same,GI50,[2],7.7 ± 1 nM
same,preferential inhibition in proliferation assays,[3],preferential inhibition of the mutationally activated EGFR
same,GI50,[4],38.2 ± 2.9 nM
same,inhibition of proliferation relative to current HER2 inhibitors,FaDu cells,more effective than current HER2 inhibitors
CS(=O)(=O)CCNCc1ccc(-c2ccc3ncnc(Nc4ccc(OCc5cccc(F)c5)c(Cl)c4)c3c2)o1 [lapatinib],concentration sufficient to inhibit the entire RTK signaling pathway,[5],greater than 100 nM
